Source: patent US20110301238A1, “SEIZURE RELATED DISORDERS AND THERAPEUTIC METHODS THEREOF” (priority 2010, published 2011)
Like-named read-outs stand apart in the source and are kept apart here.

Legend:
mouse seizure models [1] = system: mouse seizure models; parameters: key: +: Efficacy in mouse seizure models is indicated as plus; −: minus; some (+/−); conditions: literature; the PTZ model was performed in rats for PHB, PHT and VPA; cited from earlier work
mouse seizure models [2] = system: mouse seizure models; parameters: key: +: Efficacy in mouse seizure models is indicated as plus; −: minus; some (+/−); conditions: literature; cited from earlier work
mouse seizure models [3] = system: mouse seizure models; parameters: key: +: Efficacy in mouse seizure models is indicated as plus; −: minus; some (+/−); conditions: literature; cited from earlier work; remark: listed apart in the source
mouse seizure models [4] = system: mouse seizure models; parameters: key: +: Efficacy in mouse seizure models is indicated as plus; −: minus; some (+/−); conditions: literature; cited from earlier work; remark: listed apart in the source
Wistar rats = system: Wistar rats; parameters: key to Efficacy in PTZ in PILO-SE rodents (chronic): +: Efficacy in mouse seizure models is indicated as plus; −: minus; some (+/−); conditions: cited from earlier work; for sensitivity of PTZ-induced seizures to drug: one month after pilocarpine, subcutaneous PTZ
[5] = Method: All mice were housed under a 12 h light dark cycle with free access to food and water. […] Adult male CD1 mice (20-35 g, Australian Institute for Bioengineering and Nanotechnology, Australia) were fed similar diet, prepared by Western Specialty Feed (West Australia). […] Diets were mixed fresh every 3-4 days in the laboratory, dried and then supplied to the mice. Mice were initially weighed daily to ensure adequate nutrition.
After 4 days habituation, food intake and body weight were determined daily and then averaged per day for each mouse. 24 h urine samples were taken and organic acids isolated by liquid partition chromatography and trimethylsilyl derivatives quantified by gas chromatography mass spectrometry (Sweetman, 1991). In a separate study mice were fed respective diets for 3 weeks and were decapitated after isoflurane anaesthesia between 1-4 pm. Trunk blood was collected on absorbent filter paper for measurement of acyl-carnitine levels in dried blood spots using tandem mass spectrometry modified from the method of Rashed et al. (Rashed et al., 1997).

[6] = Urine organic acids (GC-MS); format: in vivo, mice; conditions: 24 h urine; levels well below those of propionic acidemia patients
CD1 mice = test: Maximal electroshock threshold test (MEST); format: in vivo; parameters: key to Efficacy in MEST (acute): +: Efficacy in mouse seizure models is indicated as plus; −: minus; some (+/−)
Method: 0.5% Tetracaine (Sigma Aldrich) in 0.9% NaCl solution was applied to corneas 30 minutes prior to stimulation. Saline solution was also applied to corneas and electrodes immediately prior to stimulation to ensure solid conduction. Mice were administered corneal electroshocks, which were generated using a Hugo Sachs Type 211 rodent shocker (Harvard Apparatus, Germany). Stimulation parameters of 50-60 Hz sine wave frequency, 0.2 second shock duration starting at an 11 mA current were used (Giardina and Gasior, 2009). Immediately following shock administration mouse seizure behaviour was observed. Severe clonic convulsions followed by tonic extension of both forelimbs were classified as seizures. 1 mA increments were used to determine the seizure threshold CC50 value using the up down method (Kimball et al., 1957). All mice were terminated via cervical dislocation immediately following seizure observational time.

CF1 mice [7] = test: Corneal kindling; format: in vivo; parameters: key to Delay in corneal kindling (chronic): +: Efficacy in mouse seizure models is indicated as plus; −: minus; some (+/−)
Method: The corneal kindling model was slightly modified from the original protocol ([…] and […], 1998) with kindling twice a day with at least 4 h intervals. A topical anesthetic (0.5% tetracaine hydrochloride ophthalmic solution) was applied to the corneas 10-15 min before stimulation. After wetting the electrodes with 0.9% NaCl immediately before testing, 9 mA 0.4 ms duration pulses at 50 Hz were applied to the corneas for 3 seconds by a constant-current device (ECT Unit 57800, Ugo Basile). Mice were manually held during stimulation and then released for behavioral observation. Seizures were scored according to a modified Racine scale (Racine, 1972) as described by […] and […] (1998) with 0=no reaction or immobility; 1=jaw clonus; 2=myoclonic twitches in the forelimbs, sometimes with head nodding; 3=clonic convulsions in the forelimbs; 4=clonic convulsions in the forelimbs with rearing and falling; 5=loss of balance. […] Both groups had the same average seizure scores for the full kindling period and the last three days of kindling. During the five following weeks, mice were rekindled every week twice a day on two consecutive days and the scores were averaged.

CF1 mice [8] = test: PTZ (i.v.) seizure threshold, second hit model in chronic stage of pilocarpine SE model; format: in vivo; parameters: key to Efficacy in PTZ in PILO-SE rodents (chronic): +: Efficacy in mouse seizure models is indicated as plus; −: minus; some (+/−)
Method: The pilocarpine CF1 mouse model used in this study was slightly modified from our previous description (Borges et al., 2003, Borges et al., 2004, Borges et al., 2006, Borges et al., 2008). 26-43 g CF1 mice were injected with methylatropine (2 mg/kg i.p. in 0.9% NaCl) to minimize peripheral side effects followed after 15-30 min by different doses of pilocarpine for CF1 mice (270-360 mg/kg, s.c.). About fifty percent of injected mice experienced behavioral status epilepticus (SE) lasting about four hours as defined by continuous seizure activity consisting mainly of whole body continuous clonic seizures. 4.5 h after pilocarpine injection, all mice were injected with pentobarbital (22.5 mg/kg, i.p.) followed by 1 ml 5% dextrose in lactate Ringer's solution (i.p.). After SE, mice were monitored daily, hand-fed moistened cookies and injected with 5% dextrose in lactate Ringer's solution twice a day for about three days and thereafter when needed. Spontaneous and handling-induced seizures, including stage 3-5 seizures, jumping and wild running, were noted. […] “Sham control” mice received methylatropine and pentobarbital, but saline instead of pilocarpine. Out of a total of 205 mice injected with pilocarpine, the inventors obtained 44% SE, 41% no SE mice, while 14% of mice died. In the chronic stage of the pilocarpine model, the seizure thresholds for the first generalized clonic and tonic seizures induced by pentylenetetrazole (PTZ, i.v.) as a measure for seizure susceptibility of SE, no SE and control mice were assessed. As previously described ([…] et al., 2008, Willis et al., 2009), 10 mg/ml PTZ dissolved in saline was infused into the tail vein at 150 μl/min. The latencies to the first generalized myoclonic seizure and tonic extension were determined and converted to seizure thresholds expressed as mg/kg body weight. Mice were euthanized by cervical dislocation immediately after the tonic extension seizure.

[9] = Brain metabolite analysis in chronic stage of pilocarpine model (GC-MS/LC-MS); format: in vivo, CF1 mice; conditions: for brain BHB (β-hydroxybutyrate) / brain Fumarate (%) / brain GABA / brain aspartate (%) / brain citrate / brain glutamate / brain glutamine / brain malate (%) / brain succinate: 35% triheptanoin for three weeks
Excerpt: (§1) Both groups of mice received standard diet during the phase of epileptogenesis, the first two weeks after SE. They were then divided into two groups of equal average weight and received either standard or 35% triheptanoin-containing diet for three weeks. To avoid metabolite changes induced by anesthesia, mice were killed by cervical dislocation and then decapitated. Within 22-32 seconds brains without cerebellum were frozen in liquid nitrogen. Trunk blood was collected in heparinized tubes for analysis of β-hydroxybutyrate and glucose using kits from Pointe Scientific and […], respectively. Brains were stored at -80 C and shipped to the Metabolic Mouse Phenotyping Center at Case Western University for chromatography mass spectrometry (GC-MS/LC-MS) analysis and characterization of intermediates and products of the CAC and acyl-CoA's.

[10] = Plasma β-hydroxybutyrate and glucose in pilocarpine model; format: in vivo, CF1 mice; conditions: no significant changes; range over the SE/no SE and diet groups
Excerpt: as §1

mouse seizure models [11] = test: PTZ (acute) seizure model; format: in vivo; parameters: key to Efficacy in PTZ (acute): +: Efficacy in mouse seizure models is indicated as plus; −: minus; some (+/−)
mouse seizure models [12] = test: 6 Hz (acute) seizure model; format: in vivo; parameters: key to Efficacy in 6 Hz (acute): +: Efficacy in mouse seizure models is indicated as plus; −: minus; some (+/−)
acute seizure models = test: Fluorothyl acute seizure model; format: in vivo; conditions: 30% triheptanoin (Willis and Borges in preparation)
[13] = chronically epileptic SE mice, not in no SE mice
[14] = 30% triheptanoin (Willis and Borges in preparation)

NC(=O)N1c2ccccc2C=Cc2ccccc21 [CBZ, carbamazepine]
Efficacy in PTZ (acute) (mouse seizure models [1]): −
Efficacy in 6 Hz (acute) (mouse seizure models [2]): +/−
Efficacy in MEST (acute) (mouse seizure models [3]): +

CC[C@@H](C(N)=O)N1CCCC1=O [LEV, levetiracetam]
Efficacy in PTZ (acute) (mouse seizure models [1]): −
Efficacy in 6 Hz (acute) (mouse seizure models [2]): +
Efficacy in MEST (acute) (mouse seizure models [3]): −
Delay in corneal kindling (chronic) (mouse seizure models [4]): +

O=C1NC(=O)C(c2ccccc2)(c2ccccc2)N1 [PHT, phenyloin]
Efficacy in PTZ (acute) (mouse seizure models [1]): −
Efficacy in 6 Hz (acute) (mouse seizure models [2]): +
sensitivity of PTZ-induced seizures to drug (Wistar rats; SE Wistar rats): not in SE rats
Efficacy in PTZ in PILO-SE rodents (chronic) (Wistar rats; literature, PTZ model performed in rats for PHB, PHT and VPA): −
sensitivity of PTZ-induced seizures to drug (Wistar rats; no SE Wistar rats): sensitive
Efficacy in MEST (acute) (mouse seizure models [3]): +

CCCCCCC(=O)OCC(COC(=O)CCCCCC)OC(=O)CCCCCC [Triheptanoin, 1,3-di(heptanoyloxy)propan-2-yl heptanoate]
body weights ([5]; 35% triheptanoin diet vs standard chow, up to 52 days, CF1 mice): statistically indistinguishable
tolerability ([5]; mouse, in vivo): well tolerated
urine markers for propionic acidemia (methylmalonate, methylcitrate) [6]: some increases
MEST (critical current at which 50% of mice seize, CC50) (CD1 mice; 35% of daily caloric intake as triheptanoin oil, after 3.5 and six weeks, CD1 mice, p=0.018 and p<0.0011): reproducible increase
Efficacy in MEST (acute) (CD1 mice; mouse): +
development of corneally kindled seizures (CF1 mice [7]; 35% triheptanoin feeding from three weeks prior to and throughout kindling, CF1 mice): delayed the development of kindled seizures
Delay in corneal kindling (chronic) (CF1 mice [7]; mouse): +
PTZ clonic seizure thresholds (CF1 mice [8]; SE or no SE mice, diet for three weeks after pilocarpine): no effect
reversal of increased susceptibility to PTZ tonic extension in SE mice (CF1 mice [8]; diet initiated immediately after pilocarpine injection, three weeks, p<0.05): about 40%
Efficacy in PTZ in PILO-SE rodents (chronic) (CF1 mice [8]; mice): +
reversal of susceptibility to PTZ tonic extension in no SE mice (CF1 mice [8]; no SE mice, three weeks after pilocarpine injection): but not in no SE mice
counteraction of 30% increased susceptibility to tonic extension seizure in SE mice (CF1 mice [8]; three week feeding initiated two weeks after pilocarpine injection, p<0.05): about 50%
brain β-hydroxybutyrate levels ([9]; 35% triheptanoin diet, both SE and no SE brains): doubled
brain BHB (β-hydroxybutyrate) ([9]; No SE mice): 108.9 ± 9.6 μmol/g wet weight
brain Fumarate (%) ([9]; No SE mice): 82.8 ± 3.8 % of control
brain GABA ([9]; No SE mice): 2.36 ± 0.13 μmol/g wet weight
brain aspartate (%) ([9]; No SE mice): 104.0 ± 7.0 % of control
brain citrate ([9]; No SE mice): 0.21 ± 0.01 μmol/g wet weight
brain glutamate ([9]; No SE mice): 21.59 ± 0.92 μmol/g wet weight
brain glutamine ([9]; No SE mice): 12.91 ± 0.49 μmol/g wet weight
brain malate (%) ([9]; No SE mice): 125.5 ± 7.7 % of control
brain succinate ([9]; No SE mice): 0.11 ± 0.01 μmol/g wet weight
brain BHB (β-hydroxybutyrate) ([9]; SE mice): 127.4 ± 15.7 μmol/g wet weight
brain Fumarate (%) ([9]; SE mice): 81.4 ± 2.9 % of control
brain GABA ([9]; SE mice): 2.16 ± 0.05 μmol/g wet weight
brain aspartate (%) ([9]; SE mice): 76.6 ± 4.1 % of control
brain citrate ([9]; SE mice): 0.2 ± 0.01 μmol/g wet weight
brain glutamate ([9]; SE mice): 22.01 ± 1.65 μmol/g wet weight
brain glutamine ([9]; SE mice): 13.15 ± 0.48 μmol/g wet weight
brain malate (%) ([9]; SE mice): 80.1 ± 3.9 % of control
brain succinate ([9]; SE mice): 0.10 ± 0.01 μmol/g wet weight
brain propionyl-CoA levels ([9]; SE mice, triheptanoin feeding, p<0.001): restored
steady state brain level of succinyl-CoA ([9]; by SE or diet): No significant changes
increase of brain HMG-CoA levels [9, 13]: 1.8 fold
increase of brain methylmalonyl-CoA levels [9, 13]: 1.4 fold
decrease of brain fumarate levels ([9]; no SE mice, p<0.05): 17%
increase of brain malate levels ([9]; no SE mice, p<0.05): 26%
plasma levels of glucose [10]: 174 to 228 mg/dL
plasma levels of β-hydroxybutyrate [10]: 0.17 to 0.28 mM
anticonvulsant effect in acute PTZ (i.v.) model (mouse seizure models [11]; [14]): No consistent anticovulsant effect
Efficacy in PTZ (acute) (mouse seizure models [11]; mouse): −
anticonvulsant effect in acute 6 Hz model (mouse seizure models [12]; [14]): No consistent anticovulsant effect
Efficacy in 6 Hz (acute) (mouse seizure models [12]; mouse): −
anticonvulsant effect in acute fluorothyl model (acute seizure models): No consistent anticovulsant effect
